# “Also recorded” adds a separate entry of the source. Numbered stars: 1 amine (or outer) side, 2 acyl side, 3 side chain; on linkers, the order of the positions; unused ones are H or OH. Bridge positions count the residues as written; N and C are the ends. Square brackets hold non-standard residues; d marks the D form. Peptide text beside a SMILES is read from it. I, II: the chains in the order shown. Actinocin(9to1) = Cc1c2oc3c(C)ccc(C(=O)[*:1])c3nc-2c(C(=O)[*:2])c(N)c1=O; NMeV = CN[C@H](C(=O)O)C(C)C; Sar = CNCC(=O)O
# How the values were obtained:
# [1] = test system: Fit-1 mRNA expression; assay: Northern blot of Fit-1 (T1/ST2) mRNA induction in cultured neonatal rat cardiac myocytes, with or without 8% cyclic mechanical strain; assay type: cell-based; conditions: for induction of Fit-1 mRNA expression by 8% mechanical strain: FIG. 4, applied during strain, actinomycin D 5 μg/ml (2 and 4 hours), cyclohexamide 10 μg/ml; for strain-induced induction of Fit-1 mRNA expression / Fit-1 mRNA expression in the absence of strain: FIG. 3, H2O2 100 uM, TIRON 10 mN; for strain-induced induction of Fit-1 mRNA expression: 8% mechanical strain; for induction of Fit-1 mRNA expression in the absence of mechanical strain: FIG. 2, 3 hours, Ang II 50 nM; for induction of Fit-1 mRNA expression in the absence of mechanical strain / rank order potency for the induction of Fit-1 mRNA expression / induction of Fit-1 mRNA expression, agent alone: IL-1β 10 ng/ml; for induction of Fit-1 mRNA expression in the absence of mechanical strain / rank order potency for the induction of T1/ST2 mRNA expression: PMA 200 nM; for rank order potency for the induction of Fit-1 mRNA expression: 8% strain; for rank order potency for the induction of Fit-1 mRNA expression / induction of Fit-1 mRNA expression, agent alone: PMA 100 ng/ml; for induction of Fit-1 mRNA expression, agent alone: no strain; for rank order potency for the induction of T1/ST2 mRNA expression: strain 8%
# Text: The approach to mechanical stimulation used an apparatus that has multiple platens that contact the underside of silicone elastomer membranes to apply a spatially isotropic biaxial strain profile to the membrane (Schaffer J L, et al., J Orthop Res, 1993, 12:709-719; and U.S. Provisional Patent Application Ser. No. 60/144,134 filed on Jul. 16, 1999 entitled “AN APPARATUS FOR STUDYING MYOCARDIAL MECHANICAL OVERLOAD HYPERTROPHY AND USES THREFOR, by Richard T. Lee, and bearing and express mail no. EL110243781US). Six individual 78 mm membranes can be stretched at once with varying amplitudes of strain by controlling displacement of each platen with a stepper motor. Measured Green strains are accurate to ˜±0.25% at strains from 1-14% (Cheng G C, et al., Circ Res, 1997, 80:28-36; Brown T D, J Biomechanics, 2000, 33:3-14). Throughout this study, 8% biaxial strain was used.
# Neonatal rat ventricular myocytes (NRVM) from 1-day old Sprague-Dawley rats were isolated by previously described methods (Springhorn J P, and Claycomb W C., Biochem J, 1989; 258:73-78; Arstall M A, et al., J Mol Cell Cardiol, 1998, 30:1019-25). NRVM were plated on the coated membrane dish at a density of 2,000,000 cells/dish in DMEM containing 7% FCS and incubated 24 h. Approximate cell confluence was 85-90%. NRVM were then made quiescent by washing with 10 ml of Hanks' balanced salt solution (HBSS, 138 mM NaCl, 5.3 mM KCl, 4.0 mM NaHCO3, 1.3 mM CaCl2, 0.5 mM MgCl2, 0.4 mM MgSO4, 0.4 mM KH2PO4, 0.3 mM Na2HPO4, 5.6 mM glucose; Life Technologies, Inc., Rockville, Md.) twice and incubating with 26 ml of DMEM containing 0.2% FCS for 48-72 hours.
# The cDNA clones for differentially expressed genes were obtained by PCR using the GenBank sequences. Each clone was sequenced from both 5′ and 3′ ends to confirm identity. Positive elements in the DNA microarray were confirmed by Northern blot hybridization analysis in at least three independent experiments using three different sources of NRVMs. Total RNA was isolated by the guanidium thiocyanate and phenol chloroform method (Chomcyznski, et al., Anal. Biochem., 1987, 162:156-159). For Northern blotting, 15 μg RNA was loaded on a 1.0% agarose-formaldehyde gel (2.0 mol/l), transferred to a nylon membrane (Amersham Pharmacia Biotech AB, Piscataway, N.J.), and UV cross-linked with a UV Stratalinker (Stratagene, Inc., La Jolla, Calif.). Each probe was hybridized with ExpressHyb solution (Clontech Labs., Inc., Palo Alto, Calif.) at 68° C. for 1 hour. The membrane was washed with 2×SSC, 0.05% SDS solution for 30 to 40 minutes and three times at room temperature and 0.1×SSC, 0.1% SDS solution with continuous shaking at 50° C. for 40 minutes. The membrane was exposed to film at −80° C., and radiographs were scanned and analyzed with Optimas 5.0 software (Optimas Co./Media Cybernetics, Silver Springs, Md.). Densitometric units were normalized to the ethidium-stained 28S ribosomal subunit on the membrane.
# T1/ST2 mRNA is induced by mechanical strain in cultured neonatal cardiac myocytes. Neonatal rat ventricular myocytes were isolated by collagenase digestion, plated on fibronectin-coated silicone membrane dishes at a density of 3.5 million cells/dish in 13 ml media as previously described (Yamamoto K, et al. J Biol Chem. 1999; 274:21840-21846). This technique yields cultures with ≧95% myocytes. Mechanical deformation was applied using a device that provides uniform biaxial cyclic strain as previously described (Yamamoto K, et al. J Biol Chem. 1999; 274:21840-21846). RNA was extracted (Qiagen) and Northern blotting was performed using as a probe a ^32P-labelled 600 bp PCR fragment specific to rat T1/ST2. Maximal induction occurs at 3 hours, is sustained for 9 hours and declines by 15 hours.
# [2] = test system: T1/ST2 mRNA; assay: T1/ST2 mRNA induction in human adult vascular smooth muscle cells; assay type: cell-based
# [3] = FIG. 9, interleukin-1 10 ng/ml, 1 and 3 hours
compound,measurement,setting,value
C[C@@H]1C[C@@H]([C@H](O)CC2CC(=O)NC(=O)C2)C(=O)[C@@H](C)C1 [cyclohexamide],induction of Fit-1 mRNA expression by 8% mechanical strain,[1],blocked
O=S(=O)(O)c1cc(O)c(O)c(S(=O)(=O)O)c1 [TIRON],strain-induced induction of Fit-1 mRNA expression,[1],slightly attenuated
same,Fit-1 mRNA expression in the absence of strain,[1],slightly attenuated
"OO [H2O2, hydrogen peroxide]",strain-induced induction of Fit-1 mRNA expression,[1],blocks
same,Fit-1 mRNA expression in the absence of strain,[1],does not induce
"Cc1c2oc3c(C)ccc(C(=O)N[C@@H]4C(=O)N[C@H](C(C)C)C(=O)N5CCC[C@H]5C(=O)N(C)CC(=O)N(C)[C@@H](C(C)C)C(=O)O[C@@H]4C)c3nc-2c(C(=O)N[C@@H]2C(=O)N[C@H](C(C)C)C(=O)N3CCC[C@H]3C(=O)N(C)CC(=O)N(C)[C@@H](C(C)C)C(=O)O[C@@H]2C)c(N)c1=O [Actinomycin D, actinomycin D] (I: T[dV]P[Sar][NMeV] / II: T[dV]P[Sar][NMeV]; ester I:1-I:C, II:1-II:C; linker I:N-II:N via Actinocin(9to1))",induction of Fit-1 mRNA expression by 8% mechanical strain,[1],blocked
CCCCCCCCCCCCCC(=O)O[C@@H]1[C@@H](C)[C@@]2(O)[C@@H](C=C(CO)C[C@]3(O)C(=O)C(C)=C[C@@H]23)[C@@H]2C(C)(C)[C@]12OC(C)=O [PMA],induction of Fit-1 mRNA expression in the absence of mechanical strain,[1],associated with an induction
same,rank order potency for the induction of Fit-1 mRNA expression,[1]; FIG. 5,PMA>strain>IL-1β
same,"induction of Fit-1 mRNA expression, agent alone",[1]; FIG. 5,strongest induction
same,rank order potency for the induction of T1/ST2 mRNA expression,[1]; [3],PMA>strain>interleukin-1β; also recorded: PMA>strain>IL-1
same,induction of T1/ST2 mRNA,[2],not
"IL-1β: interleukin-1β, cytokine","induction of T1/ST2 RNA, agent alone",[1],induce
same,induction of Fit-1 mRNA expression in the absence of mechanical strain,[1],associated with an induction
same,induction of Fit-1 by mechanical strain in the presence of IL-1β,"[1]; FIG. 5, 8% strain plus IL-1β 10 ng/ml",not further increased
same,rank order potency for the induction of Fit-1 mRNA expression,[1]; FIG. 5,PMA>strain>IL-1β
same,"induction of Fit-1 mRNA expression, agent alone",[1]; FIG. 5,induced
same,induction of T1/ST2 by mechanical strain in the presence of interleukin-1β,"[1]; FIG. 9, 8% strain plus interleukin-1 10 ng/ml, 1 and 3 hours",not further increased
same,rank order potency for the induction of T1/ST2 mRNA expression,[1]; [3],PMA>strain>interleukin-1β
same,rank order potency for the induction of T1/ST2 mRNA expression,"[1]; FIG. 9, interleukin-1 10 ng/ml, 1 and 3 hours, listed as IL-1",PMA>strain>IL-1
same,induction of T1/ST2 mRNA in the presence of infection with control adenovirus,"[1]; FIG. 10, interleukin-1 10 ng/ml, 4 hours",induced
same,induction of T1/ST2 mRNA,[2],induced
"angiotensin II (DRVYIHPF; Angiotensin-2; UniProt P01019 25-32, looked up)",induction of Fit-1 mRNA expression in the absence of mechanical strain,[1],did not induce
tumor necrosis factor,induction of T1/ST2 mRNA,[2],not

# Reference: patent US8871452B2, “Methods for treatment of cardiovascular disease” (The Brigham and Women's Hospital, Inc., priority 2000, dated 2014)
